Test results published in US20210393636A1, “TREATMENT OF CNS AND DEVELOPMENTAL DISORDERS USING HIGH DOSE 5-FORMYL-(6S)-TETRAHYDROFOLATE” (priority 2019, published 2021).

Experiments:
in vivo = settings: rat, in vivo, po, 4 mg/kg
Description: For this study, 4 mg/kg folate was administered as a single dose to 250-300 g male Wistar rats. […] For each form of folate 4 time points of 30 min, 1 h, 2 h and 4 h were evaluated. For each time point 2 rats were used. The folate form dissolved in 0.5 ml buffered saline was administered orally using a blunt needle attached to a 1 ml syringe. The rats were euthanized by CO2 inhalation.
Blood was drawn cardiac puncture, allowed to clot for 30 min, serum separated, diluted in equal volume of 4% ascorbate pH 7.2 and kept frozen at −20 C. Folate forms in the serum was determined by HPLC and the peaks were quantified by comparing to known standards as described below.
Folate standards (5-MTHF, FA, THF and Formyl-THF) and 13C-labeled stable isotope internal standards (13C5-5-MTHF, 13C5-FA and 13C-Formyl-THF) were obtained from Schircks Laboratories (Switzerland). Formic acid, ascorbic acid and dithiothreitol (DTT) were obtained from Fluka and Optima LC-MS grade methanol from Fisher Scientific. Stock standards for each folate metabolite and internal standards were prepared as 1 mmol/L solutions in water containing 2 mg/mL ascorbic acid and stored at −80° C. Microtiter plates used for were purchased from NUNC.
Liquid chromatography electrospray ionization mass spectrometry (LC-ESI-MS/MS) analysis of plasma 5-MTHF, FA, THF, Formyl-THF was performed on a Sciex 5500QTRAP mass spectrometer (Foster City, Calif., USA) coupled with a Shimadzu ultra-high pressure Nexera chromatograph system (Kyoto, Japan). The MS/MS experiments were performed under positive electrospray ionization (+ESI) with multiple-reaction monitoring (MRM) using a Turbolon Spray electrospray source operating at a voltage of 5.5 kV and desolvation temperature of 500° C. The calibration curve was prepared in water containing 2 mg/mL ascorbic acid over a range of 12.5-400 nmol/L for each folate analyte.
Sample preparation involved combining 50 µl of blank, standard, control or sample with 10μ1 62.5 mM dithiothreitol, 20 mg/ml ascorbic acid and 2.5 μM 13C5-5-MTHF, 13C5-FA, 13C-Formyl-THF in 1.5 mL Eppendorf tubes, mixed by vortex and incubated for 10 minutes at room temperature in the dark. Next, samples were deproteinized with 5 volumes of methanol containing 2 mg/ml of ascorbic acid and vortexed and centrifuged at 14800 rpm for 10 minutes. Supernatant was loaded in a 96-well microtiter plate for analysis. The samples were analyzed following injection of 10 μL of extract on a Synergi Hydro 4μ 150×3 mm with a 4×2 mm SecurityGuard column (Phenomenex, Calif., USA) maintained at 40° C. (Phenomenex) and eluted in a gradient with buffer A (100% water with 0.1% formic acid) and buffer B (100% Methanol with 0.1% formic acid). The flow rate was 0.5 mL/min, with a gradient over a total run time of 6 min: 0.0-2.0 min, 0-100% B; 2.5 min, 100% B; 2.6-6.0 min, 0% B.
Total analytical analysis, including column re-equilibration, was 6 minutes. Eluent flow from the column was diverted to waste at the beginning and end of each run and was only directed to the source for the period from 1.5-3.5 minutes. The LC-MS/MS data was acquired and processed using Analyst 1.5.2 software (Sciex).
Values reported include both D- and L-forms.

[1] = parenteral 5 mg twice weekly or oral 0.5-20 mg/kg/day; cited from earlier work
[2] = 25 mg liquid elixir, oral; cited from earlier work
[3] = Tissue distribution of folates 24 h after oral administration of folate forms to rat pups, with and without FR Ab (Example 3); type: in vivo; settings: antibody-treated pups vs pups without antibody
Description: To determine tissue distribution of orally administered folate forms in young rat pups and study the effect of folate receptor antibodies on this distribution. PND 21 rat pups weighing about 50 g were administered folate forms orally at a dose of 4 mg/kg. Animals were euthanized after 24 h and tissues collected for analyzing total methylfolate in each tissue to provide a measure of normal distribution.

[4] = Tissue distribution of folates 24 h after oral administration of folate forms (Example 2); type: in vivo, rats; settings: non-pregnant rats without folate receptor antibody
Description: This study evaluated the difference in folate absorption in non-pregnant rats, pregnant rats, pregnant rats injected with a control antibody, and pregnant rats injected with antibody to the folate receptor alpha. Eight (8) rats were assigned to each group for a total of thirty-two (32) rats. Two rats within each group were administered a single oral dose of PGA, 5-methyl-(6S)-THF, folinic acid or 5-formyl-(6S)-THF as a liquid solution and sacrificed at 24-hours to evaluate folate absorption patterns. The total amount of each form of folate administered to each rat was 4 mg/kg.
Additional analyses were performed in various tissues of the pregnant and non-pregnant rats. For tissues other than serum, each tissue was collected, weighed and stored at −20 C. For the folate assay each tissue was suspended in 3 volumes of phosphate buffer containing 2% ascorbic acid pH 7.4 and homogenized using a polytron probe. An aliquot of this homogenate was diluted 10 fold in PO4 buffer PH 5.5 containing 0.2% ascorbic acid, in a glass tube, sealed and placed in a boiling water bath for 10 min. The tube was cooled to room temperature, precipitate removed by centrifugation and the clear supernatant assayed for folate. Brain concentrations were derived from cortex and cerebellum.

Nc1nc2c(c(=O)[nH]1)N(C=O)C(CNc1ccc(C(=O)N[C@@H](CCC(=O)O)C(=O)O)cc1)CN2 (some centres unmarked) [Folinic acid, 5-formyl-tetrahydrofolate]
concentration at 0.5 h (in vivo; male, Wistar): 80.1 ng/mL
concentration at 1 h (in vivo; male, Wistar): 55.9 ng/mL
concentration at 2 h (in vivo; male, Wistar): 27.5 ng/mL
concentration at 4 h (in vivo; male, Wistar): 21.7 ng/mL
5-MTHF (in vivo; male, Wistar, 0.5 h): 109.7 ng/mL
THF (in vivo; male, Wistar, 0.5 h): 5.5 ng/mL
Total Uptake (in vivo; male, Wistar, 0.5 h): 195.3 ng/mL
5-MTHF (in vivo; male, Wistar, 1 h): 115.7 ng/mL
THF (in vivo; male, Wistar, 1 h): 5.9 ng/mL
Total Uptake (in vivo; male, Wistar, 1 h): 177.4 ng/mL
5-MTHF (in vivo; male, Wistar, 2 h): 103.3 ng/mL
THF (in vivo; male, Wistar, 2 h): 5.1 ng/mL
Total Uptake (in vivo; male, Wistar, 2 h): 135.9 ng/mL
5-MTHF (in vivo; male, Wistar, 4 h): 120.7 ng/mL
THF (in vivo; male, Wistar, 4 h): 7.2 ng/mL
Total Uptake (in vivo; male, Wistar, 4 h): 149.6 ng/mL
THF concentration relative to an equal dose of 5-formyl-6S-THF (in vivo): less than one fifth
tolerability [1]: tolerated
AUC0-24h, 5-Formyl-THF (Strep. faecalis activity) [2]: 135 ± 80 ng·h/mL
AUC0-24h, 5-Methyl-THF (arithmetic difference) [2]: 1929 ± 542 ng·h/mL
AUC0-24h, Total folates (l-casei activity) [2]: 2063 ± 587 ng·h/mL
AUC0-inf, 5-Formyl-THF (Strep. faecalis activity) [2]: 140 ± 81 ng·h/mL
AUC0-inf, 5-Methyl-THF (arithmetic difference) [2]: 2012 ± 567 ng·h/mL
AUC0-inf, Total folates (l-casei activity) [2]: 2149 ± 612 ng·h/mL
Cmax, 5-Formyl-THF (Strep. faecalis activity) [2]: 51 ± 50 ng/mL
Cmax, 5-Methyl-THF (arithmetic difference) [2]: 367 ± 87 ng/mL
Cmax, Total folates (l-casei activity) [2]: 393 ± 96 ng/mL
t1/2, 5-Formyl-THF (Strep. faecalis activity) [2]: 9.5 ± 4.6 h
t1/2, 5-Methyl-THF (arithmetic difference) [2]: 6.0 ± 1.9 h
t1/2, Total folates (l-casei activity) [2]: 6.0 ± 1.9 h
tmax, 5-Formyl-THF (Strep. faecalis activity) [2]: 1.22 ± 0.583 h
tmax, 5-Methyl-THF (arithmetic difference) [2]: 2.37 ± 0.483 h
tmax, Total folates (l-casei activity) [2]: 2.33 ± 0.533 h
change of folates in the brain on antibody administration [3]: an increase in folates in the brain is observed
tissue uptake of the unnatural D-isomer in ovary, brain, cerebellum and cortex [4]: significant
